46 molecules from PubChem BioAssay (NCI) can be followed below.

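Compound exposure: 48 hours, 5 concentrations, 96-well plates. GI50: concentration for 50% inhibition of growth. At the TGI there is no net growth.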

The test relates to MDA-MB-468 breast. The test can be described thus: growth of human tumour cells (NCI), 48 h.

Turning to `COc1cc(OC)c2sc(-c3ccc(-n4cncc4-c4ccc(OC)c(OC)c4)cc3)nc2c1`, the GI50 is 4150 nM and the TGI was above 100000 nM. Consider `CCCCCCCCCc1ccc(OCCOCCOCCOCCOCCOCCOCCOCCOCCO)cc1`, for which the GI50 is 66 nM and the TGI is 1180 nM. Molecule `COc1ccc2c(c1)C(=O)/C(=C/c1cccc(OCC(=O)Nc3nc(C)c(C)s3)c1)O2` gave a TGI of 17.6 nM. As for `C/C(=C(/c1ccccc1)c1ccc(OCC(O)CNCCN2CCOCC2)cc1)c1ccccc1` (stereo unspecified), the GI50 is 1410 nM and the TGI came out at 2850 nM. Taken in the same sequence, the figures for `Nc1c(C(=O)c2cccc(C#CCN3CCCCC3)c2)cnn1-c1ccc(F)cc1` were 7720 nM and above 25000 nM.

As to `CN(Cc1ccc(F)cc1)c1ccc(CO)c(Cl)c1`, the GI50 was 58 nM and the TGI was 207 nM. Taken in the same sequence, the figures for `Cc1cc(CCl)c(C)cc1CCl` were 379 nM and 1600 nM. On to `Clc1ccc(/C=C/c2ccc3ccccc3n2)cc1`, for which the GI50 is 419 nM and the TGI was 2950 nM. The matching figures for `COc1cc([C@@H]2c3cc4c(cc3[C@H](OC(C)=O)[C@H]3COC(=O)[C@@H]23)OCO4)cc(OC)c1OC`: 293 nM and 5450 nM. With `CCn1cc(/C=C2\Oc3cc(OCC#N)ccc3C2=O)c2cc(OC)ccc21`, the GI50 was 802 nM and the TGI was found to be 13700 nM.

For `COc1ccc(-c2cnnn2-c2nonc2-n2cccc2)cc1OC`, the GI50 was 2000 nM and the TGI is 7900 nM. `Nc1nc(N)c2cc(Sc3ccc4ccccc4c3)ccc2n1`: the GI50 is 1100 nM and the TGI is 2390 nM. Taken in the same sequence, the figures for `COc1ccc(Nc2nc(Nc3cc(C)[nH]n3)c3cc(OC)c(OC)cc3n2)cc1` were 1010 nM and 2530 nM.

Take `O=C(Nc1cccc2[nH]c(C(F)(F)F)nc12)c1cc(Cl)ccc1Cl`: the GI50 was 2520 nM and the TGI came to 7740 nM. The matching figures for `CCCC1(CN2c3ccccc3Sc3ccc(Cl)cc32)CCN(CC)C1` (stereo unspecified): 1600 nM and 3140 nM. For the molecule `Cc1cc(NCc2cc(Nc3ccnc4cc(Cl)ccc34)ccc2F)nc(N2CCOCC2)n1`, the GI50 was 1940 nM and the TGI turned out to be 5640 nM. The matching figures for `Cc1cc(N/N=C/c2nc(-c3ccc(Cl)cc3)oc2C)c2cc(Br)ccc2n1`: 1600 nM and 3630 nM. Taken in the same sequence, the figures for `C=C1C(=O)O[C@H]2[C@H]1CC/C(COC(=O)N[C@H]1C[C@H](O[C@H]3C[C@](O)(C(=O)CO)Cc4c(O)c5c(c(O)c43)C(=O)c3c(OC)cccc3C5=O)O[C@@H](C)[C@H]1O)=C\CC[C@@]1(C)O[C@@H]21` were 793 nM and 2040 nM. Taken in the same sequence, the figures for `CC(=O)c1ccc2c(c1)N(CCCN1CCN(CCO)CC1)c1ccccc1S2` were 1670 nM and 3210 nM. With `COc1cc(OCc2cccc(-c3ccccc3)c2C)cc(OC)c1CN1CCCCC1C(=O)NCCOCCOCCN` (stereo unspecified), the GI50 was 1700 nM and the TGI stood at 3430 nM. The matching figures for `Cc1ccc(S(=O)(=O)c2nc(-c3ccccc3)oc2S(C)(=O)=O)cc1`: 1770 nM and 3840 nM. The matching figures for `FC(F)(F)c1ccc(-c2nn3ncccc3c2-c2ccnc(Nc3ccc4c(c3)OCCO4)n2)cc1`: 4520 nM and 17600 nM. As to `CCOP(=O)(OCC)OC[C@]12CCC(C)(C)C=C1[C@H]1CC[C@@H]3[C@@]4(C)CC[C@H](OP(=O)(OCC)OCC)C(C)(C)[C@@H]4CC[C@@]3(C)[C@]1(C)CC2`, the GI50 was 1300 nM and the TGI came to 2930 nM.

On to `COc1cc(C2=NN(C(C)=O)C(c3cc(OC)c(OC)c(OC)c3)C2)ccc1O` (stereo unspecified), for which the GI50 was 265 nM and the TGI was 3610 nM. Taken in the same sequence, the figures for `CC(C)(C)[Si](C)(C)OC1[C@@H](CNC(N)=O)O[C@@H](n2cnc3c(NC(=O)Nc4ccccc4)ncnc32)[C@H]1O[Si](C)(C)C(C)(C)C` (stereo partly specified) were 2150 nM and 8230 nM. Taken in the same sequence, the figures for `COc1ccc2[nH]cc(-c3cc(N)n4nc(-c5c[nH]c6ccc(OC)cc56)cc4n3)c2c1` were 1730 nM and 3750 nM. Consider `C=C1C(=O)O[C@H]2[C@H]1CC/C(COC(=O)NCc1ccc(Cn3c(=O)sn(CCCCC)c3=O)cc1)=C\CC[C@@]1(C)O[C@@H]21`, for which the GI50 was 1190 nM and the TGI amounted to 2640 nM. The matching figures for `CCOC(=O)c1sc(-c2ccc(OS(=O)(=O)C[C@]34CCC(CC3=O)C4(C)C)c(C=O)c2)nc1C`: 966 nM and 3300 nM. Taken in the same sequence, the figures for `Cc1cn(-c2cccc(NC(=O)c3ccc(C)c(Nc4nccc(-c5cccnc5)n4)c3)c2)cn1` were 1610 nM and 3180 nM. The matching figures for `COc1cc(F)ccc1-c1cc(Nc2cc(CS(C)(=N)=O)ccn2)ncc1F` (stereo unspecified): 91.5 nM and 445 nM. As for `N=c1ccc2nc3ccc(N)cc3sc-2c1`, the GI50 was 3020 nM and the TGI amounted to 8120 nM.

For `COc1cccc(CNc2ncnc3c2ncn3C2OC(CO)C(O)C2O)c1O` (stereo unspecified), the GI50 was 137 nM and the TGI was determined as 2090 nM. The matching figures for `CCOC(=O)c1ccc(NC(=O)NC2=NCCS2)cc1`: 623 nM and above 26400 nM.

For `CCSc1ccc([C@@H]2[C@@H](O)C(=O)N2c2cc(OC)c(OC)c(OC)c2)cc1`, the GI50 was below 10 nM and the TGI was 57600 nM. In the case of `C=C1C(=O)O[C@H]2[C@H]1CC/C(Cn1cc(-c3ccc(N)cc3)nn1)=C\CC[C@@]1(C)O[C@@H]21`, the GI50 is 1770 nM and the TGI came to 4210 nM. Taken in the same sequence, the figures for `COc1ccc(-c2nc(-c3nc4cc(Cl)c(F)cc4[nH]3)c3ccccn23)cc1` were 2930 nM and 30300 nM. Taken in the same sequence, the figures for `COc1ccc(C(=O)c2sc3nc(-c4ccccc4OC)ccc3c2N)cc1OC` were 6280 nM and above 100000 nM.

Turning to `COc1ccc(C2=NC(=O)NC2c2ccc(OC)cc2)cc1` (stereo unspecified), the GI50 is 4710 nM and the TGI was determined as 43700 nM.

As to `CCN1[C@@H](C(=O)NC23CCC(C(=O)O)(CC2)CC3)[C@H](c2cccc(Cl)c2F)[C@]2(C(=O)Nc3cc(Cl)ccc32)C12CCCCC2`, the GI50 was 2180 nM and the TGI turned out to be 6680 nM.

For `c1ccc(-c2nc3n(c2-c2ccc4c(c2)OCO4)CCC3)nc1`, the GI50 was 5810 nM and the TGI was 17000 nM. Turning to `O=C(CC1(O)C(=O)Nc2ccc(F)cc21)c1ccc(C(=O)NCC2CCC3(CC2)OOC2(CCCCC2)OO3)cc1` (stereo unspecified), the GI50 was 4540 nM and the TGI turned out to be 21600 nM. The matching figures for `CCCN(CCC)c1ccc(C=O)c(Cl)c1`: 53.8 nM and 243 nM. As to `Cn1c(=O)n(C)c2cc(CNCCNc3ccnc4cc(Cl)ccc34)ccc21`, the GI50 is 14400 nM and the TGI worked out at 32400 nM. The matching figures for `Cc1ccc2c(n1)C(=O)C(Cl)=C(Nc1ccc(C(=O)OC(C)(C)C)cc1)C2=O`: 11100 nM and 26700 nM.

For `CN(C)CCCOc1cccc(NC2=C(Cl)C(=O)C(Nc3cccc(OCCCN(C)C)c3)=C(Cl)C2=O)c1`, the GI50 is 212 nM and the TGI worked out at 458 nM. On to `Cc1ccc2sc3c(c2c1)OC(N)=C(C#N)C3c1cccc(F)c1` (stereo unspecified), for which the GI50 is 225 nM and the TGI came out at 724 nM.
